Source: paper PMC4076210, “Discovery of Novel AKT Inhibitors with Enhanced Anti-Tumor Effects in Combination with the MEK Inhibitor” (PLoS ONE, 2014)
Like-named read-outs stand apart in the source and are kept apart here.

Columns and labels:
IRR(h) = biological target: T1, IRR(h) (Homo sapiens, UniProt P14616); assay: Kinase panel; format: biochemical
T1 construct: purchased Millipore KinaseProfiler

Abl(m) = biological target: T2, Abl(m) (Mus musculus, UniProt P00520); assay: Kinase panel; format: biochemical
T2 construct: purchased Millipore KinaseProfiler
T2 sequence (P00520 27-1123 limits assumed): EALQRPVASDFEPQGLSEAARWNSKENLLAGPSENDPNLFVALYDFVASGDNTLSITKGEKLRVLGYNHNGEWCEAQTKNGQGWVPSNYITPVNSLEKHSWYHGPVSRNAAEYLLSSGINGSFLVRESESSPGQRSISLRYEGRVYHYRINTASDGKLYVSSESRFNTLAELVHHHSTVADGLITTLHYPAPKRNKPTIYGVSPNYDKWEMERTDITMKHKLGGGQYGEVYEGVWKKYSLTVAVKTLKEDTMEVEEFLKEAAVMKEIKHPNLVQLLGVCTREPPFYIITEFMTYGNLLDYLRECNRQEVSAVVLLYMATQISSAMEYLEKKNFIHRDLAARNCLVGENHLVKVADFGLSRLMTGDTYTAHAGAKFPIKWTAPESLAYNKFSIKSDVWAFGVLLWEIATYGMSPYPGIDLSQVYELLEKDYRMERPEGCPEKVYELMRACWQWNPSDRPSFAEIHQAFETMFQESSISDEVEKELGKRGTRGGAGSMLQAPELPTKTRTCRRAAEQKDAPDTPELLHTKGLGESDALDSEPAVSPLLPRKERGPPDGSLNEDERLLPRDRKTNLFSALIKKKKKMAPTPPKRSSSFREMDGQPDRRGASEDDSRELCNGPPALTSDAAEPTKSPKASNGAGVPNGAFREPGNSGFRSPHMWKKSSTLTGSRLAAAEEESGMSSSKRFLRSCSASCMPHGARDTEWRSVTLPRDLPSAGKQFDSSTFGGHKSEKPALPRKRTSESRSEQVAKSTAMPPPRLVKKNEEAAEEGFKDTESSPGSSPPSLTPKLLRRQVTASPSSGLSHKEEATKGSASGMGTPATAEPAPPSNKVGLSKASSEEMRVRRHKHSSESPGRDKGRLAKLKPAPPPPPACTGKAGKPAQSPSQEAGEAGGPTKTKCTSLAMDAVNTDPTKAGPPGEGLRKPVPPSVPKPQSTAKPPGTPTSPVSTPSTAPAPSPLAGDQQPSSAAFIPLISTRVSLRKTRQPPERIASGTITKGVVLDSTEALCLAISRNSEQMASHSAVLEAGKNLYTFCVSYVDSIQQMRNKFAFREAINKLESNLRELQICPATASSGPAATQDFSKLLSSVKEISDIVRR

PKCζ(h) = biological target: T3, PKCζ(h) (Homo sapiens, UniProt Q05513); assay: Kinase panel; format: biochemical
T3 construct: purchased Millipore KinaseProfiler
T3 sequence (Q05513 1-592): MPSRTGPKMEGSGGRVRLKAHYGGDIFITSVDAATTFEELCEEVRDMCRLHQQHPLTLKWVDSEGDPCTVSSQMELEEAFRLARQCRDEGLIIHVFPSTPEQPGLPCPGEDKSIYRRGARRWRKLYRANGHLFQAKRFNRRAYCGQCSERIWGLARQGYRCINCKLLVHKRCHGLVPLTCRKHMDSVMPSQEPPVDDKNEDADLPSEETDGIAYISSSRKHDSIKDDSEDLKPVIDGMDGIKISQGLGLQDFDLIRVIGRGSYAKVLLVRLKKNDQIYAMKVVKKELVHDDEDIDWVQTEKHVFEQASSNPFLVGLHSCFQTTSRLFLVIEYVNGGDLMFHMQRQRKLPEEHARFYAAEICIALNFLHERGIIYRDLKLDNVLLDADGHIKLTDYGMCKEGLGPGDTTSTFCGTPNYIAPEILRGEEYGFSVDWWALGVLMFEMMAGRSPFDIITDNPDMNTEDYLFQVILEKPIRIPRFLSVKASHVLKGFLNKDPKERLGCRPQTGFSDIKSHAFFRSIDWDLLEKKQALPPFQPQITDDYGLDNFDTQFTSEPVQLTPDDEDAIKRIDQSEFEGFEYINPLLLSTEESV

Plk1(h) = biological target: T4, Plk1(h) (Homo sapiens, UniProt P53350); assay: Kinase panel; format: biochemical
T4 construct: purchased Millipore KinaseProfiler
T4 sequence (P53350 whole entry): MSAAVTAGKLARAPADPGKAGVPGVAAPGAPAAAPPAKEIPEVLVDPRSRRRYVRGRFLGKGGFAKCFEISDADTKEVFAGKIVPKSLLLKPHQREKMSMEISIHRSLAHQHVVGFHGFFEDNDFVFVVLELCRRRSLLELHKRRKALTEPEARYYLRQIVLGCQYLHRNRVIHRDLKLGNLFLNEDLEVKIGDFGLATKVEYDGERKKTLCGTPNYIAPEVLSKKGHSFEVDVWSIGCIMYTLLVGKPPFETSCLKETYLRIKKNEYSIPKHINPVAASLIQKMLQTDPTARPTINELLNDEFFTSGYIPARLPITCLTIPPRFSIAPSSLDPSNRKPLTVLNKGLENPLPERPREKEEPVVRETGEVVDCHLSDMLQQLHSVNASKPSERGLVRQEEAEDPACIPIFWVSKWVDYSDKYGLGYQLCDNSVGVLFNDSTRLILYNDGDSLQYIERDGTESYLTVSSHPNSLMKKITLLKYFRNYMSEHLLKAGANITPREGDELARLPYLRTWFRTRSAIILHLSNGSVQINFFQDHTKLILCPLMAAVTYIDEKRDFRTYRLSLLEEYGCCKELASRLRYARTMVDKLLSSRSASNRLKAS

CK1δ(h) = biological target: T5, CK1δ(h) (Homo sapiens, UniProt P48730); assay: Kinase panel; format: biochemical
T5 construct: purchased Millipore KinaseProfiler
T5 sequence (P48730 whole entry): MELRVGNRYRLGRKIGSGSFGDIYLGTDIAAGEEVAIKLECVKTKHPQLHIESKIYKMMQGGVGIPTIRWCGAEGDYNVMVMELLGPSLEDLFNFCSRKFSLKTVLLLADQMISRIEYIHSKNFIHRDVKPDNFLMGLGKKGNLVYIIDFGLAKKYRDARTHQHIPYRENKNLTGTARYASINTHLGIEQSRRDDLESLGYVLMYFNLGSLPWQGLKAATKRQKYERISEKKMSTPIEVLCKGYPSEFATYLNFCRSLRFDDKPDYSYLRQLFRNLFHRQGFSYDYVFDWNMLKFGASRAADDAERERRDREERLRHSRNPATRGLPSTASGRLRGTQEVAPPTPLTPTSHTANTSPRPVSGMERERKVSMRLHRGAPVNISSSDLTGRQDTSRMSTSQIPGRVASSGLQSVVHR

FGFR3(h) = biological target: T6, FGFR3(h) (Homo sapiens, UniProt P22607); assay: Kinase panel; format: biochemical
T6 construct: purchased Millipore KinaseProfiler
T6 sequence (P22607 23-806): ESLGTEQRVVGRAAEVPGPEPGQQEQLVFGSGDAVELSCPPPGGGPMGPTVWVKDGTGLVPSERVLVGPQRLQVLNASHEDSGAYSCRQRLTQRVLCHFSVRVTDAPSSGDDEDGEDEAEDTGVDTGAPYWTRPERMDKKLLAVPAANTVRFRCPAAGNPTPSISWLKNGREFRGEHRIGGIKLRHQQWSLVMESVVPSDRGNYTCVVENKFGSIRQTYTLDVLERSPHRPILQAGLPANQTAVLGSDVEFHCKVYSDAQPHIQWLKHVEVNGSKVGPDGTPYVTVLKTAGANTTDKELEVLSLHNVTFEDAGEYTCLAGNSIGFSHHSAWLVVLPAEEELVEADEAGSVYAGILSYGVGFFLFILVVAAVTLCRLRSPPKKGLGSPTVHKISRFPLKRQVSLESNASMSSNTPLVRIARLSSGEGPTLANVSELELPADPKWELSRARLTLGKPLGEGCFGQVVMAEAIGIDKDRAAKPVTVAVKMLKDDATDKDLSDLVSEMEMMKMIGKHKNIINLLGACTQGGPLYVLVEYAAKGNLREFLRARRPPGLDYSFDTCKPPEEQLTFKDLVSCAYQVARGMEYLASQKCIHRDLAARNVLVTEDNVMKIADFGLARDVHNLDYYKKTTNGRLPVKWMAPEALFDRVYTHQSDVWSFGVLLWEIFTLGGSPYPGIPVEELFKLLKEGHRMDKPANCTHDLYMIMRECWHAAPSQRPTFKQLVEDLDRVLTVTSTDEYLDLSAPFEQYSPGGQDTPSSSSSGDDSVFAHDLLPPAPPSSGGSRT

SAPK2a(h) = biological target: T7, SAPK2a(h) (Homo sapiens, UniProt Q16539); assay: Kinase panel; format: biochemical
T7 construct: purchased Millipore KinaseProfiler
T7 sequence (Q16539 whole entry): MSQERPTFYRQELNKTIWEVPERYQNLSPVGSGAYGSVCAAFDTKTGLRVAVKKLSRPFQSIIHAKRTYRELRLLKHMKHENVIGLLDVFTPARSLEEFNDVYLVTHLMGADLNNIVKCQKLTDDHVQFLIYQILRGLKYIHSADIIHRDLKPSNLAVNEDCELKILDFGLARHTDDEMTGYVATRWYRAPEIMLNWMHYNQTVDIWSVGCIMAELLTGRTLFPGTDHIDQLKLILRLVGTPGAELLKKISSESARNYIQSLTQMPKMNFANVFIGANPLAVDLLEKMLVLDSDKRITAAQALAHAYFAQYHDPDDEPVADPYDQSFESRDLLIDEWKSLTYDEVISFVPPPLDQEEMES

GRK7(h) = biological target: T8, GRK7(h) (Homo sapiens, UniProt Q8WTQ7); assay: Kinase panel; format: biochemical
T8 construct: purchased Millipore KinaseProfiler
T8 sequence (Q8WTQ7 1-553): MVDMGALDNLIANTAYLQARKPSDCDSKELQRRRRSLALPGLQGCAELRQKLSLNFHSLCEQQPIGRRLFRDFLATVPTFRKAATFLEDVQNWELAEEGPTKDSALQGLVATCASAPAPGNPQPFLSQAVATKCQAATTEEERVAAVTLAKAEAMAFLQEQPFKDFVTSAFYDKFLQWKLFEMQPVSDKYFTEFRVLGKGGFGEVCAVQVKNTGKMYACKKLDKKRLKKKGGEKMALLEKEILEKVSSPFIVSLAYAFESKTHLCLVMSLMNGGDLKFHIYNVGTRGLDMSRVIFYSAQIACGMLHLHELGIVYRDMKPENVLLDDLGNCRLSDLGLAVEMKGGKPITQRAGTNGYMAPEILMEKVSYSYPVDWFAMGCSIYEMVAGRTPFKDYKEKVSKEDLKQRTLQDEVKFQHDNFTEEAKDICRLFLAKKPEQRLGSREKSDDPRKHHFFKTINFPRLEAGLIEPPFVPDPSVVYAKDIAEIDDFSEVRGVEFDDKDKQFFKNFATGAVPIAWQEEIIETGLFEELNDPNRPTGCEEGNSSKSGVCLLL

JNK3(h) = biological target: T9, JNK3(h) (Homo sapiens, UniProt P53779); assay: Kinase panel; format: biochemical
T9 construct: purchased Millipore KinaseProfiler
T9 sequence (P53779 whole entry): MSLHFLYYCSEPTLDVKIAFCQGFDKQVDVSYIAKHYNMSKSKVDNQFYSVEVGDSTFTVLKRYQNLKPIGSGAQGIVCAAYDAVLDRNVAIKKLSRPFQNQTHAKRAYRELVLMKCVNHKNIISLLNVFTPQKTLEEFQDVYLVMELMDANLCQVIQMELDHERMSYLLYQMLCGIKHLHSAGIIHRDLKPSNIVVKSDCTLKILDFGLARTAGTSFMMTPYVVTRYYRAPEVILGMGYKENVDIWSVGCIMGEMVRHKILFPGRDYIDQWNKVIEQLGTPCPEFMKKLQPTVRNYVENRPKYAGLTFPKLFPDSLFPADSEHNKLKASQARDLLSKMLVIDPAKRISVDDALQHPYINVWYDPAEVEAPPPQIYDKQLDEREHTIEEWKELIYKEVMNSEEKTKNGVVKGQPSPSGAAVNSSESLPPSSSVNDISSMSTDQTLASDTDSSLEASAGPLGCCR

[1] = Blood glucose after single oral dose; format: in vivo, mouse
Procedure: Blood glucose levels were determined from tail vein puncture in mice using a handheld glucometer. Plasma Insulin levels were using the Rat Ultrasensitive Insulin ELISA kit (Crystal Chem Inc).

Flt3(D835Y)(h) = biological target: T10, Flt3(D835Y)(h) (Homo sapiens, UniProt P36888, D835Y); assay: Kinase panel; format: biochemical
T10 construct: purchased Millipore KinaseProfiler
T10 sequence (P36888 27-993 D835Y): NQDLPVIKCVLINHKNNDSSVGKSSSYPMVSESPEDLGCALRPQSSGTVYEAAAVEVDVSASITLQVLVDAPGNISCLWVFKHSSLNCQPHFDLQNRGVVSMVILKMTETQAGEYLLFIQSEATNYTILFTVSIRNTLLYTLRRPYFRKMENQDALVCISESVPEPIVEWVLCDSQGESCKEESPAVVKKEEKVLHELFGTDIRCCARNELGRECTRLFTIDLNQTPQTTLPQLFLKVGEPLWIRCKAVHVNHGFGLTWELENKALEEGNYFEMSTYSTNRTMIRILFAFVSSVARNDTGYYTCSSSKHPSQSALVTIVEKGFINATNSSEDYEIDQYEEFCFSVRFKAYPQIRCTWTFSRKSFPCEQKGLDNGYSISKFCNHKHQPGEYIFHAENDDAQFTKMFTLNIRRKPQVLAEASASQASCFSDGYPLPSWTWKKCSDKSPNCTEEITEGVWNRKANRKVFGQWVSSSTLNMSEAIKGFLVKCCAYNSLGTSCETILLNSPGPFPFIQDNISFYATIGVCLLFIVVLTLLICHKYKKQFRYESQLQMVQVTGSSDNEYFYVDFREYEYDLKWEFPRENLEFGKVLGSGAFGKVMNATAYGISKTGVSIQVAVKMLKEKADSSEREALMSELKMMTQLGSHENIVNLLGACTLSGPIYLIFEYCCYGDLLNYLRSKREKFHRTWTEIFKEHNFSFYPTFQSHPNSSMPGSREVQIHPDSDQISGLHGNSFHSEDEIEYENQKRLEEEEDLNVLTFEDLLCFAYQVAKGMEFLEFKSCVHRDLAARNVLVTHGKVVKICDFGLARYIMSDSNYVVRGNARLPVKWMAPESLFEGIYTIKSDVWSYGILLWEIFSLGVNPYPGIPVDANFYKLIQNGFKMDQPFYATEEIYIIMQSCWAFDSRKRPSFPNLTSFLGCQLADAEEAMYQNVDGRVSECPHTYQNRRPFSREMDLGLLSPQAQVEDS

PKG1α = PKG1α (Homo sapiens, UniProt Q13976); assay: Kinase IC50 assay; format: biochemical

T1 sequence (P14616 27-1297): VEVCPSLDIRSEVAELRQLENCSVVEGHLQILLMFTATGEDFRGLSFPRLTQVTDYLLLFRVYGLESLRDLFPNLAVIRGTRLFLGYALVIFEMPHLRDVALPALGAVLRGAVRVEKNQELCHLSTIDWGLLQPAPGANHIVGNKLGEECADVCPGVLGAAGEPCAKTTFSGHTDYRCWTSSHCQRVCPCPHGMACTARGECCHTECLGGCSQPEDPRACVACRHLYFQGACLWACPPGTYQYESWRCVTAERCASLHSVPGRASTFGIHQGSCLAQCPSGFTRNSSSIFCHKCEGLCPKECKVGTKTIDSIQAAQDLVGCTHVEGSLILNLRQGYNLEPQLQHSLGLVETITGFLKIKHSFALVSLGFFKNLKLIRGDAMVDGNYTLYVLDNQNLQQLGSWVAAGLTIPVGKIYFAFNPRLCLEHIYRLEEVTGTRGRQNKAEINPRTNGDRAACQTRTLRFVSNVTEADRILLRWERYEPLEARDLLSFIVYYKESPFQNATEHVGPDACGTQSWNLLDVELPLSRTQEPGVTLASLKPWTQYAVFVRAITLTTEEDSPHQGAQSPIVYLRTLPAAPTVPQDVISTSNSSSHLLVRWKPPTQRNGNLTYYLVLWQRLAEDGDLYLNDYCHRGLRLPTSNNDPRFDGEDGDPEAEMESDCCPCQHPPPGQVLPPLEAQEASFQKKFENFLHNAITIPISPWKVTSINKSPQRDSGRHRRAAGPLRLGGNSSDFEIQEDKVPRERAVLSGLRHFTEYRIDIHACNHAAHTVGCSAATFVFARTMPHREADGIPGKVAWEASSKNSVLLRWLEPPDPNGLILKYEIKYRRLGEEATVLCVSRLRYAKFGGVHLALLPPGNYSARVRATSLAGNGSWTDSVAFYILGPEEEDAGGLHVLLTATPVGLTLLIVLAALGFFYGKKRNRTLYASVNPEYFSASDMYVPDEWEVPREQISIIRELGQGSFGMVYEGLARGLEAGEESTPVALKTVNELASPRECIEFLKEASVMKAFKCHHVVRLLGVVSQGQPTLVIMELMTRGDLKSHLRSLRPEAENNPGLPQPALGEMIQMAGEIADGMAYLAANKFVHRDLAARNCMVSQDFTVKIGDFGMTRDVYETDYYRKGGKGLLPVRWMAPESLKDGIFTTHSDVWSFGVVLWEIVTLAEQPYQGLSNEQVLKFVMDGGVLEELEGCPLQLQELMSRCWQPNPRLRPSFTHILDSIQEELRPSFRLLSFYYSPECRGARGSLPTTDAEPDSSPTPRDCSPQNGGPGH

Cn1ncc(Cl)c1-c1cc(C(=O)N[C@H](CN)Cc2cccc(F)c2)sc1Cl [GSK2110183]
inhibition at 0.5 µM (IRR(h)): -11%
inhibition at 10 µM (IRR(h)): -8%
inhibition at 0.5 µM (Abl(m)): 8%
inhibition at 10 µM (Abl(m)): -5%
inhibition at 0.5 µM (PKCζ(h)): -4%
inhibition at 10 µM (PKCζ(h)): 37%
inhibition at 0.5 µM (Plk1(h)): -21%
inhibition at 10 µM (Plk1(h)): -6%
inhibition at 0.5 µM (CK1δ(h)): -1%
inhibition at 10 µM (CK1δ(h)): 49%
inhibition at 0.5 µM (FGFR3(h)): -6%
inhibition at 10 µM (FGFR3(h)): 9%
inhibition at 0.5 µM (SAPK2a(h)): -13%
inhibition at 10 µM (SAPK2a(h)): -8%
inhibition at 0.5 µM (GRK7(h)): 64%
inhibition at 10 µM (GRK7(h)): 96%
inhibition at 0.5 µM (JNK3(h)): -5%
inhibition at 10 µM (JNK3(h)): 6%
time for blood glucose to return to normal levels ([1]; 100 mg/kg single oral dose): ≤ 8 h
blood glucose level ([1]; 100 mg/kg single oral dose, 2 h post dosing): 211 mg/dL
inhibition at 0.5 µM (Flt3(D835Y)(h)): 12%
inhibition at 10 µM (Flt3(D835Y)(h)): 71%
IC50 (PKG1α): 0.9 nM

Cn1ncc(Cl)c1-c1cc(C(=O)N[C@H](CN)Cc2ccc(F)c(F)c2)oc1Cl [GSK2141795]
inhibition at 0.5 µM (IRR(h); 0.5 µM, read-out: % Inhibition): -16%
inhibition at 10 µM (IRR(h); 10 µM, read-out: % Inhibition): -11%
inhibition at 0.5 µM (Abl(m); 0.5 µM, read-out: % Inhibition): 1%
inhibition at 10 µM (Abl(m); 10 µM, read-out: % Inhibition): 7%
inhibition at 0.5 µM (PKCζ(h); 0.5 µM, read-out: % Inhibition): 5%
inhibition at 10 µM (PKCζ(h); 10 µM, read-out: % Inhibition): 74%
inhibition at 0.5 µM (Plk1(h); 0.5 µM, read-out: % Inhibition): -34%
inhibition at 10 µM (Plk1(h); 10 µM, read-out: % Inhibition): 8%
inhibition at 0.5 µM (CK1δ(h); 0.5 µM, read-out: % Inhibition): -2%
inhibition at 10 µM (CK1δ(h); 10 µM, read-out: % Inhibition): 63%
inhibition at 0.5 µM (FGFR3(h); 0.5 µM, read-out: % Inhibition): -14%
inhibition at 10 µM (FGFR3(h); 10 µM, read-out: % Inhibition): 2%
inhibition at 0.5 µM (SAPK2a(h); 0.5 µM, read-out: % Inhibition): -7%
inhibition at 10 µM (SAPK2a(h); 10 µM, read-out: % Inhibition): -3%
inhibition at 0.5 µM (GRK7(h); 0.5 µM, read-out: % Inhibition): 42%
inhibition at 10 µM (GRK7(h); 10 µM, read-out: % Inhibition): 76%
inhibition at 0.5 µM (JNK3(h); 0.5 µM, read-out: % Inhibition): -5%
inhibition at 10 µM (JNK3(h); 10 µM, read-out: % Inhibition): 3%
blood glucose level ([1]; maximal tolerated dose of 30 mg/kg, daily): 200 to 300 mg/dL
time for glucose to return to normal ([1]; single 30 mg/kg dose): ≤ 8 h
blood glucose level ([1]; single 30 mg/kg dose, 2 h post dosing): 200 mg/dL
inhibition at 0.5 µM (Flt3(D835Y)(h); 0.5 µM, read-out: % Inhibition): 6%
inhibition at 10 µM (Flt3(D835Y)(h); 10 µM, read-out: % Inhibition): 81%
IC50 (PKG1α): < 1 nM
